From the supplement of paper PMC6723410

System: GUMC-403
Experiment: viability at highest tested concentration (max response) relative to DMSO (% of DMSO control); higher = less cytotoxic
Details: library / dose series: MIPE library, 11-point 1:3 dilution, 48 h
In short: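 In 1536-well plates, 700 GUMC-403 papilloma cells per well, taken from a patient and grown by conditional reprogramming, were seeded in 5 μL F + Y medium and incubated overnight at 37 °C. Compounds were pinned in at 23 nL in an 11-point 1:3 series, and left for 48 h before CellTiter-Glo luminescence was read on a ViewLux against vehicle (100%) and empty (0%) wells. Reported values are viability at the highest tested concentration relative to vehicle control.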

Row | SMILES | viability (top concentration 46.1 µM) | viability (top concentration 23 µM)
1 | CN[C@H](CC(C)C)C(=O)N[C@H]1C(=O)N[C@@H](CC(N)=O)C(=O)N[C@H]2C(=O)N[C@H]3C(=O)N[C@H](C(=O)N[C@H](C(=O)O)c4cc(O)cc(O)c4-c4cc3ccc4O)[C@H](O)c3ccc(c(Cl)c3)Oc3cc2cc(c3O[C@@H]2O[C@H](CO)[C@@H](O)[C@H](O)[C@H]2O[C@H]2C[C@](C)(N)[C@H](O)[C@H](C)O2)Oc2ccc(cc2Cl)[C@H]1O | 119 | –
2 | CCC[C@@H]1C[C@@H](C(=O)N[C@@H]([C@H]2O[C@H](SC)[C@H](O)[C@@H](O)[C@H]2O)[C@@H](C)O)N(C)C1.Cl | 101 | –
3 | Cc1cc(C(C)(C)C)c(O)c(C)c1CC1=NCCN1 | 120 | –
4 | COc1cc2c(Nc3ccc(NC(=O)c4ccccc4)cc3)ncnc2cc1OCCCN1CCOCC1 | 117 | –
5 | Cc1nc(-c2ccc(OCC(C)C)c(C#N)c2)sc1C(=O)O | 129 | –
6 | O=C(O)CCc1ccc(NCc2cccc(Oc3ccccc3)c2)cc1 | 122 | –
7 | CCN1\C=C(\C(O)=O)C(=O)C2=C1N=C(N3CCNCC3)C(=C2)F | 95.7 | –
8 | COc1cc(-c2nn(C3CCC(N4CCN(C(C)=O)CC4)CC3)c3ncnc(N)c23)ccc1NC(=O)c1cc2ccccc2n1C (centres undefined) | 78.2 | –
9 | CCCCCCCCCCCCCCCC(=O)O[C@@H]1[C@@H](O)[C@@H](O)[C@@H]([C@H](NC(=O)[C@@H]2C[C@@H](CCC)CN2C)[C@H](C)Cl)O[C@@H]1SC.Cl | 116 | –
10 | Cc1ccc(Nc2nccc(N(C)c3ccc4c(C)n(C)nc4c3)n2)cc1[S+](N)(=O)[O-] | 117 | –
11 | CCNc1cc(NC2CCC(O)CC2)nc(Nc2ccc3c(ccn3Cc3ccccc3)c2)n1 (centres undefined) | 99.8 | –
12 | Cc1cccc(Nc2nc(N[C@@H]3CCCC[C@@H]3N)ncc2C(N)=O)c1 | 66.7 | –
13 | O=C(c1cncc(Br)c1)N1CCC(N2CCCC2)CC1 | 115 | –
14 | COc1ccc2c(c1OC)CN1CCc3cc4c(cc3C1C2)OCO4 (centres undefined) | 121 | –
15 | COC1=CC=C2CN(C)CC[C@@]34\C=C/[C@H](O)C[C@@H]3OC1=C24 | 122 | –
16 | CN1C2CCC1CC(OC(=O)C(CO)c1ccccc1)C2 (centres undefined) | 109 | –
17 | Clc1ccc(C(c2ccccc2Cl)C(Cl)Cl)cc1 (centres undefined) | 100 | –
18 | O=C(Nc1cc(Cl)cc2c1[nH]c1cnccc12)c1cccnc1 | 56.8 | –
19 | NC/1=N/C(=O)N(/C=C1)[C@H]2CC[C@@H](CO)O2 | 84.4 | –
20 | OC[C@H]1O[C@@H](O[C@@H]2[C@@H](CO)O[C@](O)(CO)[C@H]2O)[C@H](O)[C@@H](O)[C@H]1O | 95.3 | –
21 | C=C1/C(=C\C=C2/CCC[C@]3(C)[C@@H]([C@H](C)CCCC(C)(C)O)CC[C@@H]23)C[C@@H](O)C[C@@H]1O | 145 | –
22 | Nc1ncnc2c1c(-c1cccc(OCc3ccccc3)c1)cn2C1CC(CN2CCC2)C1 (centres undefined) | 98.4 | –
23 | COC1=CC(=CC=C1)C2=CC=C(NC(=O)/C3=C(/CCC3)C(O)=O)C(=C2)F | 99.8 | –
24 | CC(=O)Nc1ccc(OC[C@](C)(O)C(=O)Nc2ccc([N+](=O)[O-])c(C(F)(F)F)c2)cc1 | 88.4 | –
25 | COc1cc(OC)c(NC(=O)Nc2cc(C)on2)cc1Cl | 131 | –
26 | Nc1ncnc2c1c(-c1cccc(OCc3ccccc3)c1)cn2C1CC(CN2CCCC2)C1 (centres undefined) | 78.1 | –
27 | CC(=O)Oc1cc2c(s1)CCN(C(C(=O)C1CC1)c1ccccc1F)C2.Cl (centres undefined) | 114 | –

Row | SMILES | viability (top concentration 46.1 µM) | viability (top concentration 23 µM)
28 | Cn1cc(/C=C/C(=O)c2cccc(F)c2)cc1/C=C/C(=O)NO | 103 | –
29 | CO[C@H]1C[C@@H]2CC[C@@H](C)[C@@](O)(O2)C(=O)C(=O)N2CCCC[C@H]2C(=O)O[C@H]([C@H](C)C[C@@H]2CC[C@@H](OC(=O)C(C)(CO)CO)[C@H](OC)C2)CC(=O)[C@H](C)/C=C(\C)[C@@H](O)[C@@H](OC)C(=O)[C@H](C)C[C@H](C)/C=C/C=C/C=C/1C | 110 | –
30 | COc1cc(O)c2c(c1)C1OC1C[C@H](O)[C@H](O)C(=O)/C=C\C[C@H](C)OC2=O (some centres undefined) | 107 | –
31 | O=C/1NC(=O)C(=C1C2=CN=C3C=CC=C[N]23)/C4=C[N]5CCN(CC6=C5C4=CC=C6)C(=O)N7CCOCC7 | 60.5 | –
32 | CC(=O)O[C@@]12CO[C@@H]1C[C@H](O)[C@]3(C)[C@@H]2[C@H](OC(=O)C4=CC=CC=C4)[C@]5(O)C[C@H](OC(=O)C(O)[C@@H](NC(=O)OC(C)(C)C)C6=CC=CC=C6)C(=C(/[C@@H](O)C3=O)C5(C)C)/C (some centres undefined) | 103 | –
33 | COc1ccccc1N1CCN(CCN(C(=O)C2CCCCC2)c2ccccn2)CC1 | 95.3 | –
34 | CCC(C)SSc1ncc[nH]1 (centres undefined) | 101 | –
35 | COC1=C(N2CCNC(C)C2)C(=CC3=C1N(\C=C(C(O)=O)/C3=O)C4CC4)F (centres undefined) | 120 | –
36 | Cn1ccc2cc3c(cc21)CCN3C(=O)Nc1cccnc1 | 126 | –
37 | CC(=O)O[C@@]12CO[C@@H]1C[C@H](O)[C@]3(C)[C@@H]2[C@H](OC(=O)C4=CC=CC=C4)[C@]5(O)C[C@H](O)/C(=C(/[C@@H](O)C3=O)C5(C)C)C | 117 | –
38 | c1ccc(CNc2nc(NCc3ccccc3)c3ccccc3n2)cc1 | 51.8 | –
39 | NC(=O)c1cnccn1 | 131 | –
40 | O=[S+]([O-])(CCSSCC[S+](=O)([O-])[O][Na])[O][Na] | 119 | –
41 | Cc1ccc([S+](=O)([O-])Nc2nc3ccccc3nc2Nc2ccc3nsnc3c2)cc1 | – | 66.3
42 | CO[C@@]12[C@H](COC(N)=O)C/3=C(N1C[C@@H]4N[C@H]24)/C(=O)/C(=C(N)\C3=O)C | 77 | –
43 | CC(C)[C@H](CO)Nc1nc(Nc2ccc(C(=O)O)c(Cl)c2)c2ncn(C(C)C)c2n1 | 75.1 | –
44 | Cc1ccccc1C(C(=O)NC1CCCC1)N(C(=O)Cn1cnc2ccccc21)c1cccc(F)c1 (centres undefined) | 101 | –
45 | CNC1CCCN(c2c(F)cc3c(=O)c(C(=O)O)cn(C4CC4)c3c2OC)C1 (centres undefined) | 121 | –
46 | O=[S+]([O-])(NCCNC/C=C/c1ccc(Br)cc1)c1cccc2cnccc12 | 72.3 | –
47 | Cc1c(C(=O)Nc2ccc(N3C[C@@H](C)O[C@@H](C)C3)nc2)cccc1-c1ccc(OC(F)(F)F)cc1 | 109 | –
48 | COc1ccc2cc(-c3[nH]c(-c4ccc([S+](C)[O-])cc4)nc3-c3ccncc3)ccc2c1 (centres undefined) | 144 | –
49 | CC(C)(C)c1nc(-c2cccc(N[S+](=O)([O-])c3c(F)cccc3F)c2F)c(-c2ccnc(N)n2)s1 | 109 | –
50 | COc1cc(C(=O)NC2CCN(C)CC2)ccc1Nc1ncc2c(n1)N(C1CCCC1)CCC(=O)N2C(C)C | 93.5 | –
51 | CCOC(=O)C(C#N)C\1C2=CC(=CC=C2O\C(=C1C(=O)OCC)N)Br (centres undefined) | 120 | –
52 | NC/1=N/C(=O)N(/C=N1)[C@@H]2O[C@H](CO)[C@@H](O)[C@H]2O | 103 | –
53 | C[C@]12CC[C@@H]3c4ccc(O)cc4CC[C@H]3[C@@H]1CC[C@@H]2O | 86.3 | –
54 | COc1ncnc(N[S+](=O)([O-])c2ccc(N)cc2)c1OC | 137 | –

Row | SMILES | viability (top concentration 46.1 µM) | viability (top concentration 23 µM)
55 | CC(C)(C)OC(=O)Nc1ccc(-c2cc(C(=O)NCCCCCCC(=O)NO)no2)cc1 | 81.6 | –
56 | O=C([O-])C(O)Cc1ccc(O)c(O)c1 (centres undefined) | 106 | –
57 | CC[N+](CC)(CC)CCOc1cccc(OCC[N+](CC)(CC)CC)c1OCC[N+](CC)(CC)CC | 97.6 | –
58 | C[C@@H](c1ncncc1F)[C@](O)(Cn1cncn1)c1ccc(F)cc1F | 96.3 | –
59 | Cc1csc(-c2nnc(Nc3ccc(Oc4ncccc4-c4ccnc(N)n4)cc3)c3ccccc23)c1 | 101 | –
60 | CC(=O)OCCN1C(=O)c2c(C)nc3ccc([S+](=O)([O-])N4CCOCC4)cc3c2C1=O | 123 | –
61 | CN1[C@@H]2CC(O)C[C@H]1[C@@H]1O[C@@H]12 (some centres undefined) | 92.4 | –
62 | COc1cc2c(cc1O)CCC1C2CC[C@@]2(C)C1CC[C@@H]2O (some centres undefined) | 101 | –
63 | C/C(=C\c1csc(C)n1)[C@@H]1C[C@@H]2O[C@@H]2CCC[C@H](C)[C@H](O)[C@@H](C)C(=O)C(C)(C)[C@@H](O)CC(=O)O1 | 114 | –
64 | O=C(O)CCCc1ccc(N(CCCl)CCCl)cc1 | 111 | –
65 | CC1=CC/2=C(C=C1C)N(C[C@@H](O)[C@@H](O)[C@@H](O)CO)C/3=N/C(=O)NC(=O)C3=N2 | 123 | –
66 | COC1=CC=C2[N](CCCN(C)C)C=C(C2=C1)C/3=C(/C(=O)NC3=O)C4=C[NH]C5=C4C=CC=C5 | 102 | –
67 | Cc1ccc(NC(=O)c2cccc(N(C)C)c2)cc1NC(=O)c1ccc(O)cc1 | 96.6 | –
68 | C[C@@H](N)c1ccc(C(=O)Nc2ccnc3[nH]ccc23)cc1 | 139 | –
69 | Oc1ccc2ccccc2c1SSc1c(O)ccc2ccccc12 | 129 | –
70 | Cc1cc(NC(=O)Nc2ccc(N(C)C)cc2)c2cc(F)cc(F)c2n1 | 124 | –
71 | C=CC[N+]1([C@H]2C[C@H]3[C@@H]4CC[C@H]5C[C@H](O)[C@@H](N6CCOCC6)C[C@]5(C)[C@H]4CC[C@]3(C)[C@H]2OC(C)=O)CCCC1 | 108 | –
72 | Cc1ccc(/C=N/NC(=O)c2ccccc2Oc2ccccc2)o1 | 92 | –
73 | C/C=C1\C2C=C(C)CC1(N)c1ccc(=O)[nH]c1C2 (centres undefined) | 118 | –
74 | CC(C)c1cccc(C(C)C)c1O | 108 | –
75 | O=C(C=CC#Cc1cccc(N[S+](=O)([O-])c2ccccc2)c1)NO | 108 | –
76 | C[C@](O)(COc1ccc(C#N)cc1)C(=O)Nc1ccc(C#N)c(C(F)(F)F)c1 | 93.8 | –
77 | Cc1cc(Nc2nc(N[C@@H](C)c3ncc(F)cn3)ncc2Cl)n[nH]1 | 163 | –
78 | CN1C(=O)C(Cc2c[nH]c3ccccc23)NC1=S (centres undefined) | 102 | –
79 | CCOC(=O)N1CCN(/[N+]([O-])=N/Oc2cc(O/N=[N+](\[O-])N3CCN(C(=O)OCC)CC3)c([N+](=O)[O-])cc2[N+](=O)[O-])CC1 | 118 | –
